Results published in the METLIN SMRT retention time set (Domingo-Almenara et al. 2019).

Assay: gradient 5% acetonitrile 3 min, to 50% in 2 min, to 85% in 15 min, held 3 min, 100 µL/min
Conditions: column: Zorbax Extend-C18 2.1 x 50 mm; eluents: water / acetonitrile, 0.1% formic acid
In short: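 Standards, all pure, were combined into mixtures of ~100 molecules and run at 100 μL/min on a Zorbax Extend-C18 column (2.1 × 50 mm, 1.8 μm) with water and acetonitrile, each containing 0.1% formic acid. A coupled quadrupole time-of-flight mass spectrometer operated in positive and negative ionization mode. Retention time values come from computationally picked adduct peaks, each inspected manually.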

RP-LC retention time [s] | SMILES
807 | COc1ccccc1N1CCN(C(=O)C2CCN(c3nnc(-c4ccccc4)o3)CC2)CC1
747 | CN(C)S(=O)(=O)c1ccc(C(=O)N2CCC(c3nnc(C(F)(F)F)o3)CC2)cc1
582 | COc1ccc(Cl)cc1C(=O)NCC(c1ccsc1)N1CCCC1 (stereo not drawn)
661 | CCN1C(=O)NC(c2ccccc2C(F)(F)F)C2=C1CN(CCC(=O)NCC(C)C)C2=O (stereo not drawn)
780 | CC(=O)c1ccc(NS(=O)(=O)N2CCC(C)CC2)cc1
742 | COc1ccc(N2CC(c3nnc(NC(=O)COc4ccc(C)cc4)o3)CC2=O)cc1 (stereo not drawn)
928 | Cc1ccc2c(c1)[C@H]1OCCC[C@H]1C(c1cccc(O)c1)N2 (stereo partly drawn)
996 | CCc1ccc(CNC(=O)C2=C3CCCN3c3ccc(F)cc3S2(=O)=O)cc1
1020 | CCc1nn2c(CNS(=O)(=O)c3ccc(C)cc3C)c(-c3ccccc3)nc2s1
642 | CCc1ccc2oc(C(=O)NCC(c3ccccc3)N(C)C)cc(=O)c2c1 (stereo not drawn)
734 | CC(C)CC(=O)N1CCCC(c2nc(CCNC(=O)C3CCC3)cs2)C1 (stereo not drawn)
1180 | Cc1ccccc1OCCCC(=O)Nc1nc(-c2ccccc2)cs1
873 | COc1ccc(NC(=O)C2CCc3nc(N4CCC(C)CC4)ncc3C2)c(OC)c1 (stereo not drawn)
757 | Cc1ccn2c(NC(=O)c3ccc(Cl)c([N+](=O)[O-])c3)c(-c3ccc(F)cc3)nc2c1
817 | CCn1cc(S(=O)(=O)Nc2cccc(F)c2)c2cccnc21
760 | Cn1nc(CNC(=O)c2ccc3c(c2)OCO3)c2ccccc21
612 | COc1cccc(-c2cc(N3CCN(C(=O)NC(C)C)CC3)ncn2)c1
781 | CCCCNC(=O)CCCN1C(=O)CCn2nc(-c3cn(C)c4ccccc34)cc21
613 | Cc1cccc(Nc2cc(C)nc3ccnn23)c1
821 | COc1ccc(-c2c(C)noc2NC(C)=O)cc1S(=O)(=O)Nc1cccc(C(F)(F)F)c1
648 | Cc1ccc(NC(=O)N2CCN(CCn3c(C(F)(F)F)nc4cccnc43)CC2)cc1
720 | CCCn1cc(CCNS(=O)(=O)CCC)c2cccnc21

RP-LC retention time [s] | SMILES
1060 | CCCCN(C)C(=O)C1CCN(c2cc(Oc3ccc(CC)cc3)ncn2)CC1
984 | CCOc1ccc2ncc(C#N)c(N3CCC(C(=O)Nc4ccccc4OCC)CC3)c2c1
1040 | COc1cccc(C2=NN(C(C)=O)C(c3ccc(Br)cc3)O2)c1OC(C)=O (stereo not drawn)
786 | CCc1ccc(CNC(=O)C2CCN(c3cnc(N4CCOCC4)nc3)CC2)cc1
892 | CCSCCOC(=O)C1=C(C)NC2=C(C(=O)CCC2)C1c1ccc(C(=O)OC)cc1 (stereo not drawn)
1040 | Cc1ccc(C)c(N2CCN(C(=O)Cn3nc(C(=O)N4CCCC4)c4ccccc43)CC2)c1
643 | C[C@H](NC(=O)C1CCN(S(=O)(=O)c2ccccc2)CC1)C(=O)O
759 | CCOC(=O)c1nc(N2CCCC(C)C2)c2ccccc2n1 (stereo not drawn)
960 | Cn1cc(S(=O)(=O)N2CCCC2)cc1C(=O)N1CCC(Cc2ccccc2)CC1
784 | CCCc1nc(-c2c(C)cc(C)nc2NC(=O)c2cc(C)cc(C)c2)no1
645 | COc1ccc(Cl)c2c(=O)c3c([nH]c12)CCN(CC(=O)Nc1cccc(Cl)c1)C3
655 | O=C(CSc1ccc2nnc(-c3cccs3)n2n1)NCc1ccc(F)cc1
664 | CCc1nncn1C1CCN(S(=O)(=O)c2cc(OC)ccc2OC)CC1
706 | COc1ccc(-c2nc3cc(C)ccn3c2NC(=O)c2ccc(OC)cc2OC)cc1
892 | Cc1ccc(C)c(-c2cn3ccn(-c4cccc(F)c4)c(=O)c3n2)c1
923 | COc1ccc(N2C(=O)C3N=NN(c4ccc(F)cc4)C3C2=O)cc1 (stereo not drawn)
821 | CCN1CCN(c2cc(-c3nc(-c4cccc(F)c4)no3)c3ccccc3n2)CC1
812 | CC(C)n1c(N2CCN(C(=O)c3cccs3)CC2)cc(=O)n(C(C)C)c1=O
594 | Cc1noc2ncnc(N3CCCC(C(=O)N4CCN(C5CCCCC5)CC4)C3)c12 (stereo not drawn)
885 | O=C(Nc1nnc(-c2ccc(C(F)(F)F)cc2)o1)c1cc2ccccc2o1
579 | CN1C(=O)CSc2ccc(NC(=O)N3CCN(c4ccccn4)CC3)cc21
1210 | O=S(=O)(c1cc(F)ccc1F)N1CCc2nc(-c3ccc(Cl)cc3)ncc2C1

RP-LC retention time [s] | SMILES
650 | O=C(c1ccc(-c2csc(C3CC3)n2)cc1)N1CCN(c2ccccn2)CC1
871 | O=C(NCc1cc(F)cc(F)c1)c1ccc(NC(=O)C2CCC2)cc1N1CCOCC1
564 | CC1CC(=O)c2cnc(N3CCN(C)CC3)nc2C1 (stereo not drawn)
968 | COCCc1noc(C2Cc3ccccc3N2C(=O)Nc2cc(C)cc(C)c2)n1 (stereo not drawn)
786 | COc1cccc(NC(=O)C2CCCN(C(=O)C3Sc4ccccc4NC3=O)C2)c1 (stereo not drawn)
1010 | CC1Oc2ccccc2N(Cc2nc(-c3ccc4c(c3)OCO4)no2)C1=O (stereo not drawn)
995 | CCOC(=O)c1cc(S(=O)(=O)N2CCCC2C(=O)Nc2cccc(SC)c2)cn1C (stereo not drawn)
905 | COc1ccc(N2C(=O)C3N=NN(c4cccc(OC)c4)C3C2=O)cc1 (stereo not drawn)
911 | COC(=O)C1=CN(c2cccc(C)c2)c2cc(F)ccc2S1(=O)=O
1260 | O=C(Nc1cc(F)ccc1F)c1c(O)c2cccnc2n(-c2cccc(F)c2)c1=O
888 | COC(=O)c1ccsc1NC(=O)Cc1ccc2c(c1)OCO2
996 | COc1cc(NC(=O)Cn2cnc3c(sc4nc(-c5ccccc5)ccc43)c2=O)cc(OC)c1
793 | O=C(O)c1ccc2c(c1)n(Cc1ccc(F)cc1)c(=O)c1ccnn12
703 | Cc1nc(S(=O)(=O)N2CCc3c(c(-c4nnc(-c5ccc(F)cc5)o4)nn3C)C2)cn1C
806 | COc1ccc(-c2cc(C(=O)N3CCN(c4c(C)n(C)c(=O)n(C)c4=O)CC3)c3ccccc3n2)cc1
985 | Cc1ccc(-c2cc3c4nnc(SCC(=O)Nc5ccccc5F)n4ccn3n2)cc1C
877 | COc1cc(OC)cc(-c2nc(C3CC(=O)N(c4ccc(OC)c(OC)c4)C3)no2)c1 (stereo not drawn)
645 | CCC(=O)Nc1ccc(CCc2nc3ccc(C(=O)NCCC(C)C)cc3[nH]2)cc1
850 | C=CC(=O)N1CCCC(n2nc(-c3ccc(Oc4ccccc4)cc3)c3c(N)ncnc32)C1 (stereo not drawn)
864 | Cc1csc(-c2ccc(N3CCN(C(=O)c4nn(C)c5ccccc45)CC3)nc2)n1
563 | COCCN1CCC(CNC(=O)C(=O)Nc2cccc(SC)c2)CC1
784 | CCc1cc(=O)n(CC(=O)Nc2ccccc2CC)c(N2CCOCC2)n1

RP-LC retention time [s] | SMILES
658 | CCn1cnc2cc(-c3noc(CNC(=O)Cc4ccc(Cl)cc4)n3)ccc21
766 | CC1(C(=O)NC2CCCCCC2)Cn2c(cc3occc32)C(=O)N1Cc1ccccn1 (stereo not drawn)
651 | O=C(NCCc1noc(C2CC2)n1)C1CCC1
793 | O=C(C1CCN(S(=O)(=O)c2cc(-c3noc(C4CC4)n3)cs2)CC1)N1CCOCC1
1120 | CSc1ccc(-c2noc(Cc3nnc(-c4ccc(Cl)cc4)o3)n2)cc1
851 | CC(C)CN(CC(C)C)C(=O)C1CCN(S(=O)(=O)c2ccc3c(c2)CCCC(=O)N3)CC1
998 | O=c1c2ccccc2c(-c2nc(-c3cccnc3)no2)nn1-c1ccc(F)cc1
863 | CN(CC1(C)CCOCC1)C(=O)Cc1c(F)cccc1Cl
644 | N#Cc1cccc(-c2cn3c(n2)N(C(=O)c2ccoc2)CCC3)c1
886 | O=C(c1ccccc1)N1CCc2cc(-c3ccno3)ccc21
713 | COc1ccc(NC(=O)CSc2nc3nc(C)cc(C)n3n2)c(OC)c1
814 | O=C(Cc1cccs1)Nc1nnc(SCc2nnc(-c3ccc4c(c3)OCO4)o2)s1
712 | O=C(Nc1ccccc1)N1CCC(n2c(-c3ccoc3)nc3cccnc32)C1 (stereo not drawn)
577 | Cc1nnc(C2CC3(CCN(CCCO)CC3)CN2Cc2ccccc2)o1 (stereo not drawn)
729 | Cc1c(C(=O)N2CCN(C(=O)c3ccco3)CC2)[nH]c2ccccc12
919 | Cc1cc(C)cc(N2C(=O)CN(S(C)(=O)=O)CC2(C)C(=O)NCc2ccc(Cl)cc2)c1 (stereo not drawn)
1030 | Cc1nc(-c2cn(C(C)C)c3ncccc23)sc1C(=O)N1CCCCC1C (stereo not drawn)
656 | O=C(CCC(=O)N1CCOc2ccc(Cl)cc21)N1CCN(c2ccccn2)CC1
557 | O=C(C1CCN(c2cc(N3CCCCC3)ncn2)CC1)N1CCC(N2CCCCC2)CC1
752 | CCC(Oc1ccc(=O)n(-c2ccc(F)cc2)n1)C(=O)NCc1ccc2c(c1)OCO2 (stereo not drawn)

SMILES | RP-LC retention time [s]
Cc1ccccc1S(=O)(=O)N1[C@H]2CC[C@@H]1c1cnc(-c3ccccc3)nc1C2 | 1140
CC(NC(=O)c1cn(C)c2ncccc12)c1ccccn1 (stereo not drawn) | 552
